Laboratory results: US10233168B2, “14-hydroxy-docosahexaenoic acid compounds” (The Brigham And Women's Hospital, Inc., priority 2008, dated 2019)
One block for each compound: values may come before it.

How the values were obtained:
PMN = test: murine zymosan A-induced peritonitis, exudate PMN; type: in vivo, mice
Procedure: (§1) The 7,14-dihydroxy-containing products were isolated from methyl formate fractions obtained from murine MΦs via RP-HPLC (Agilent 1100 series) using a Beckman C18 column (250 mm×10 mm×5 μm) and methanol/water (65/35; v/v) ramped to 85/15 (v/v) for 30 min. Their actions were assessed in murine zymosan A-induced peritonitis (19). Peritonitis was initiated by intraperitoneal (i.p.) administration of 1 mg zymosan A in 1 ml of sterile saline, and each compound was administered i.v. 5 min before zymosan. At 2 h, mice were sacrificed, and peritoneal exudates harvested (5 ml DPBS^−/− without calcium and magnesium), identified and enumerated by light microscopy and FACS. Resident MΦs were identified by FACS (8). To assess pro-resolving actions, peritoneal MΦs (24-well plate, 10^5 cells/well) from naïve mice were incubated with each compound (15 min, pH 7.45) followed by addition of FITC-labeled Zymosan A (30 min, 37° C.). Trypan blue was used to quench extracellular zymosan particles (1 min, 37° C.) followed by DPBS^+/+ (pH 7.45), and phagocytosis quantified using a Perkin-Elmer Victor^3.

peritoneal MΦs [1] = test: MΦ phagocytosis of FITC-labeled zymosan; type: cell-based, mice; conditions: for enhancement of MΦ phagocytosis of zymosan: 15 min compound, then FITC-labeled zymosan 30 min, 37° C.
Procedure: as §1

peritoneal MΦs [2] = conditions: literature ref. 13; cited from earlier work
lipoxygenase (LOX) = test: LC/MS/MS lipidomics of peritonitis exudates with LOX inhibitor; type: in vivo, mice; conditions: exudates obtained with the LOX inhibitor, n=3
Procedure: In view of the actions of specialized chemical mediators in resolution (6, 7), 17-HDHA was monitored as a biomarker of activation and conversion of endogenous DHA, as well as employed targeted lipidomics to query whether other pathways were operative (see FIG. 1). During this course of peritonitis, PMN rapidly entered, reaching max within 12 h. In this self-resolving system (19), PMN declined and were lost from exudates, thus defining resolution (FIG. 1). Unbiased targeted mediator lipidomics employing LC/MS/MS-based analyses were carried out with these exudates. In addition to 17S-HDHA, a marker of resolvin and protectin biosynthesis (6), endogenous DHA was converted to 14S-hydroxydocosahexaenoic acid (14S-HDHA).

SMILES: CC/C=C\C/C=C\CC(O)C=CC=CC=CC(O)C/C=C\CCC(=O)O (stereo not drawn) [MaR1, 7,14-dihydroxydocosa-4Z,8,10,12,16Z,19Z-hexaenoic acid]
dose (as low as) that potently reduced infiltration of PMN into sites of inflammation (PMN; i.v. before i.p. zymosan, dose response FIG. 3C): 0.2 ng/mouse
anti-inflammatory action regulating PMN entry into zymosan-induced peritonitis (PMN; nanogram quantities per mouse, FIG. 3A): stopping PMN infiltration
enhancement of MΦ phagocytosis of zymosan (peritoneal MΦs [1]; FIG. 3D): enhances phagocytosis
potency compared to RvE1 and PD1 (peritoneal MΦs [1]; FIG. 3, inset comparison at 1 nM): comparable potency

SMILES: CC/C=C\C[C@H](O)\C=C/C=C/C=C/[C@H](O)C/C=C\C/C=C\CCC(=O)O [PD1, 10R,17S-dihydroxydocosa-4Z,7Z,11E,13E,15Z,19Z-hexaenoic acid]
concentration (as low as) enhancing MΦ phagocytosis (peritoneal MΦs [2]): 1 nM

SMILES: CCCCC[C@H](O)/C=C/[C@H]1[C@H](O)CC(=O)[C@@H]1C/C=C\CCCC(=O)O [PGE2, prostaglandin E2, reference compound]
enhancement of MΦ phagocytosis of zymosan (peritoneal MΦs [1]; FIG. 3D): did not enhance phagocytosis

SMILES: CC[C@@H](O)/C=C/C=C\C[C@@H](O)/C=C/C=C/C=C\[C@@H](O)CCCC(=O)O [RvE1, 5S,12R,18R-trihydroxyeicosa-6Z,8E,10E,14Z,16E-pentaenoic acid]
concentration (as low as) enhancing MΦ phagocytosis (peritoneal MΦs [2]): 1 nM

SMILES: CC/C=C\C/C=C\C[C@H](O)/C=C/C=C\C=C\[C@@H](O)C/C=C\CCC(=O)O [double dioxygenation product, 7S,14S-dihydroxydocosa-4Z,8E,10Z,12E,16Z,19Z-hexaenoic acid]
PMN infiltration in zymosan-induced peritonitis (PMN; 0.1 ng dose per mouse, leukocytes enumerated after 2 h, FIG. 3B): reduced PMN infiltration
potency on PMN infiltration compared with the MΦ isolated material (PMN; 0.1 ng/mouse each, FIG. 3B): less potent
enhancement of MΦ phagocytosis of zymosan (peritoneal MΦs [1]; FIG. 3D): active
potency in phagocytosis compared with the new product isolated from MΦs (peritoneal MΦs [1]; direct comparison, FIG. 3D): less potent

17S-HDHA and 14S-HDHA in peritonitis exudates (lipoxygenase (LOX)): Neither product was identified
SMILES: O=c1ccc2cc(O)c(O)cc2o1 [esculetin]
